In patent US20240216313A1, “ELAFIBRANOR DERIVATIVES AGONISTS OF PPAR FOR USE IN THE TREATMENT OF SEPSIS” (Genfit, priority 2021, published 2024):
Like-named read-outs stand apart in the source and are kept apart here.

Key:
[1] = test system: THP1 differentiated macrophages; assay: Macrophage activation: cytokine production by THP1 differentiated macrophages stimulated with LPS (E. coli O55:B5); format: cell-based, human; details: compound 24 h, then 100 ng/mL LPS E. coli 6 h
Experimental: (§1) In order to test the efficacy of the compounds on macrophage activation and pro-inflammatory cytokine production, 2.5×10^4 THP-1 cells were cultured in a 384-well plate and treated with 100 ng/mL PMA (#P8139, Sigma) for 24 h to induce differentiation into macrophages.
Then, medium was removed and FBS-deprived medium containing the compound of formula (I) was added for 24 h. Finally, THP1 macrophages were stimulated with 100 ng/mL LPS (E. coli O55:B5, #L4005, Sigma) for 6 h.

LPS-induced endotoxemia = assay: Preclinical model of endotoxemia: hepatic markers (total bilirubin, albumin) and TNFα in rat serum; format: in vivo, male Sprague Dawley rats; details: rats, 3 mg/kg/day oral gavage 3 days before LPS, blood 3 h after LPS
HepG2 cells = assay: Staurosporin-induced apoptosis in HepG2 cells (caspase 3/7 activity, Caspase Glo); format: cell-based, human; details: 16 h pre-treatment, then 10 μM staurosporin 4 h; for inhibition at 0.3 µM: Homo sapiens, HepG2, 0.3 μM, read-out: % Inhibition of caspase activity over mean Veh.
Experimental: In order to evaluate the effect of the compounds on human hepatocytes that undergo a cellular stress induced by staurosporin, the human hepatoblastoma-derived HepG2 cell line (ECACC, #85011430, Sigma-Aldrich) was cultured in high-glucose DMEM medium (#41965, Gibco, France) supplemented with 10% of fetal bovine serum (FBS, #10270, Gibco), 1% penicillin/streptomycin (#15140, Gibco), 1% sodium pyruvate (#11360, Gibco) and 1% MEM non-essential amino acids (#11140, Gibco) in a 5% CO2 incubator at 37° C.
To evaluate caspase 3/7 activity, which is a surrogate marker of apoptosis, 1.5×10^4 cells were plated in a 384-well plate (#781080, Greiner, France). After cell adherence (8 hours), cells were serum starved for 16 h in the presence of 0.3 μM of compounds or vehicle. Cpd.1 was also used at 3 and 10 μM. Thereafter, cells were treated with 10 μM staurosporin (#569397, Sigma-Aldrich, Germany) supplemented with compound for additional 4 hours before cell lysis and caspase activity measurement.
Caspase 3/7 activity was measured using Caspase Glow™ 3/7 assay (#G8093, Promega, USA). Luminescence was measured using a Spark microplate reader (#30086376, Tecan, USA). The amount of luminescence (RLU) directly correlates with caspase 3/7 activity.

[2] = test system: CLP induced polymicrobial sepsis; assay: Cecal ligation and puncture (CLP) model of polymicrobial sepsis: survival; format: in vivo, C57BL6J male mice; details: mice, 0.3 mg/kg p.o.
Experimental: This study aims to investigate the efficacy of Cpd.1 in cecal ligation and puncture (CLP) model in C57BL6J (BL6) male mice. The efficacy of the test compound was evaluated based on the survival rate of the animals within the study period.
C57BL6J male mice (supplier Janvier—France) at 9 weeks of age and weighing 23-25 g on arrival were anesthetized with 250 μL of xylazine/ketamine solution (20 mg/100 g body weight) by intraperitoneal route. A 1-1.5 cm abdominal midline incision was made, and the caecum was located and tightly ligated at half the distance between distal pole and the base of the cecum with 4-0 silk suture (mild grade). The caecum was punctured through-and-through once with a 21-gauge needle from mesenteric toward antimesenteric direction after medium ligation. A small amount of stool was extruded to ensure that the wounds were patent. Then the cecum was replaced in its original position within the abdomen, which was closed with sutures and wound clips. Mice were followed for body weight evolution and mortality rate until Day 6.
Cpd.1 or vehicle (Labrafil M 1944 CS, #3063, Gattefossé) was administrated at 0.3 mg/kg, p.o. for three days before CLP surgery. The day of CLP (day 0), Cpd.1 was administrated 1 h before surgery and pursued daily until day 6. Experiment was terminated at day 7.
Two groups of C57BL6J mice at the age of 9 weeks were treated as described above. • 1. […]

THP1 macrophages = assay: Macrophage activation: MCP1 and TNFα secretion induced by LPS from Klebsiella in THP1 macrophages (HTRF); format: cell-based, human; details: 24 h, then LPS Klebsiella 6 h; for inhibition at 10 µM / inhibition at 1 µM: Homo sapiens; for inhibition at 10 µM: THP-1, 10 μM; for inhibition at 1 µM: THP-1, 1 μM
Experimental: as §1
Then, medium was removed and FBS-deprived medium containing 1 or 10 μM compound was added for 24 h. Finally, THP1 macrophages were stimulated for 6 h with 100 ng/mL LPS (Klebsiella pneumoniae, #L4268, Sigma-Aldrich).
Monocyte chemoattractant protein 1 (MCP1) and […] (TNFα) were measured in cell supernatants by Homogeneous Time Resolved Fluorescence (HTRF, #62[…] for TNFα, and 62HCCL2PEG for MCP1, Cisbio). Fluorescence was measured with Infinite 500 (#30019337, Tecan) to determine the concentration of cytokines.

[3] = read-out: % inhibition of MCP1 secretion over mean Veh.
[4] = read-out: % inhibition of TNFα secretion over mean Veh.

## COC(CCc1cc(C)c(OC(C)(C)C(=O)O)c(C)c1)c1ccc(OC(F)(F)F)cc1 (stereo not drawn) [Cpd. 1, 2-[4-(3-methoxy-3-(4-(trifluoromethoxy)phenyl)propyl)-2,6-dimethylphenoxy]-2-methylpropanoic acid]
[1]
  reduction of TNFα secretion: potent at reducing TNFα
[1]; all doses tested
  reduction of MCP1 secretion: overpassing the untreated condition for MCP1 secretion at all doses tested
LPS-induced endotoxemia
  serum total bilirubin level compared to the vehicle condition: completely restored the level of total bilirubin
HepG2 cells; 0.3, 3 and 10 μM
  reduction of staurosporin-induced caspase activity, dose dependence: reduced caspase activity induced by staurosporin in a dose-dependent manner
[2]
  side effect recorded after each administration: No side effect

## Cc1cc(CCC(=O)c2ccc(OC(F)(F)F)cc2)cc(C)c1OC(C)(C)C(=O)O [Cpd. 2, 2-[2,6-dimethyl-4-[3-[4-(trifluoromethyloxy)phenyl]-3-oxo-propyl]phenoxy]-2-methylpropanoic acid]
THP1 macrophages; [3]
  inhibition at 10 µM: 106%
HepG2 cells
  inhibition at 0.3 µM: 70%

## Cc1cc(CCC(=O)c2ccc(C(F)(F)F)cc2)cc(C)c1OC(C)(C)C(=O)O [Cpd. 3, 2-[2,6-dimethyl-4-[3-[4-(trifluoromethyl)phenyl]-3-oxo-propyl]phenoxy]-2-methylpropanoic acid]
THP1 macrophages; [3]
  inhibition at 10 µM: 107%
THP1 macrophages; [4]
  inhibition at 10 µM: 20%

## CSc1ccc(C(CCc2cc(C)c(OC(C)(C)C(=O)O)c(C)c2)OC(C)C)cc1 (stereo not drawn) [Cpd. 5, 2-[2,6-dimethyl-4-[3-[4-(methylthio)phenyl]-3-isopropyloxypropyl]phenoxy]-2-methylpropanoic acid]
THP1 macrophages; [3]
  inhibition at 10 µM: 110%

## Cc1cc(CCC(O)c2ccc(OC(F)(F)F)cc2)cc(C)c1OC(C)(C)C(=O)O (stereo not drawn) [Cpd. 6, 2-(4-(3-hydroxy-3-(4-(trifluoromethoxy)phenyl)propyl)-2,6-dimethylphenoxy)-2-methylpropanoic acid]
THP1 macrophages; [3]
  inhibition at 10 µM: 103%
HepG2 cells
  inhibition at 0.3 µM: 43%

## CON=C(CCc1cc(C)c(OC(C)(C)C(=O)O)c(C)c1)c1ccc(OC(F)(F)F)cc1 [Cpd. 7, 2-(4-(3-(methoxyimino)-3-(4-(trifluoromethoxy)phenyl)propyl)-2,6-dimethylphenoxy)-2-methylpropanoic acid]
THP1 macrophages; [3]
  inhibition at 10 µM: 107%
THP1 macrophages; [4]
  inhibition at 10 µM: 42%
HepG2 cells
  inhibition at 0.3 µM: 66%

## CCOC(CCc1ccc(OC(C)(C)C(=O)O)c(Cl)c1Cl)c1sc(-c2ccc(C(F)(F)F)cc2)nc1C (stereo not drawn) [Cpd. 9, 2-(2,3-dichloro-4-(3-ethoxy-3-(4-methyl-2-(4-(trifluoromethyl)-phenyl)thiazol-5-yl)propyl)phenoxy)-2-methylpropanoic acid]
THP1 macrophages; [3]
  inhibition at 10 µM: 127%
THP1 macrophages; [4]
  inhibition at 10 µM: 77%

## COC(CCc1cc(C)c(OC(C)(C)C(=O)O)c(C)c1)c1ccc(SC)cc1 (stereo not drawn) [Cpd. 13, 2-[2,6-dimethyl-4-[3-[4-(methylthio)phenyl]-3-methoxypropyl]phenoxy]-2-methylpropanoic acid]
THP1 macrophages; [3]
  inhibition at 1 µM: 99%
  inhibition at 10 µM: 111%
THP1 macrophages; [4]
  inhibition at 1 µM: 0%
  inhibition at 10 µM: 18%
HepG2 cells; 0.3 μM
  % Inhibition of caspase activity over mean Veh.: 79%

## COC(CCc1cc(C)c(OC(C)(C)C(=O)O)c(C)c1)c1ccc(Br)cc1 (stereo not drawn) [Cpd. 14, 2-[2,6-dimethyl-4-[3-[4-bromophenyl]-3-methoxypropyl]phenoxy]-2-methylpropanoic acid]
THP1 macrophages; [3]
  inhibition at 10 µM: 107%
THP1 macrophages; [4]
  inhibition at 10 µM: 28%
HepG2 cells
  inhibition at 0.3 µM: 77%

## CC(C)(Oc1ccc(CCNC(=O)c2ccc(Cl)cc2)cc1)C(=O)O [Cpd. 17, bezafibrate, reference compound]
THP1 macrophages; [3]
  inhibition at 10 µM: 54%

## CC[C@@H](Oc1cccc(CN(CCCOc2ccc(OC)cc2)c2nc3ccccc3o2)c1)C(=O)O [Cpd. 18, pemafibrate, reference compound]
THP1 macrophages; [3]
  inhibition at 10 µM: 123%

## CCc1ccc(CCOc2ccc(CC3SC(=O)NC3=O)cc2)nc1 (stereo not drawn) [Cpd. 21, pioglitazone, reference compound]
THP1 macrophages; [3]
  inhibition at 10 µM: 121%
THP1 macrophages; [4]
  inhibition at 10 µM: 19%
HepG2 cells
  inhibition at 0.3 µM: 60%

## CN(CCOc1ccc(CC2SC(=O)NC2=O)cc1)c1ccccn1 (stereo not drawn) [Cpd. 22, rosiglitazone, reference compound]
THP1 macrophages; 1 μM
  % inhibition of MCP1 secretion over mean Veh.: 79%
  % inhibition of TNFα secretion over mean Veh.: 36%
THP1 macrophages; 10 μM
  % inhibition of MCP1 secretion over mean Veh.: 117%
  % inhibition of TNFα secretion over mean Veh.: 11%

## O=C(O)CCCc1cc2cc(Cl)ccc2n1S(=O)(=O)c1ccc2ncsc2c1 [Cpd. 23, lanifibranor, reference compound]
THP1 macrophages; [3]
  inhibition at 10 µM: 126%
THP1 macrophages; [4]
  inhibition at 10 µM: 32%
